59 compounds from patent US7067520B2, “Preventive or therapeutic medicines for diabetes containing fused-heterocyclic compounds or their salts” (Ishihara Sangyo Kaisha, Ltd., priority 2000, dated 2006) can be followed below.

Structures are written as SMILES. Where only a bound is given, the exact number is not on record here.

In one data set the test system is L6 cells. Put plainly: Glucose uptake test by L6 cells. The class given is cell-based. The settings on record: Rattus norvegicus, 1 hour, 2-deoxy-[3H]-glucose uptake, control (MEM solvent alone) = 100%, read-out: Ratio activity (%); for activity at 10 µg/mL: treatment concentration 10 μg/ml; for activity at 100 µg/mL: treatment concentration 100 μg/ml. As to the method:
Glucose Uptake Test by L6 Cells
Each of compounds under test was applied to L6 cells (rat cells originally derived from skeletal muscles) by the following method to measure the stimulating effect on glucose uptake. Namely, L6 cells were suspended in α-minimum essential medium (hereinafter referred to simply as MEM) containing 10% fetal bovine serum (hereinafter referred to simply as FBS), and inoculated into a 96-well plastic plate in an amount of 5×10^4 cells/well and cultivated in an incubator (5% carbon dioxide gas, 37° C.) until the cells grew all over the well. Then, the culture medium was switched to MEM solution containing 2% BS, followed by cultivation further for from 7 to 10 ays (the culture medium was exchanged every three days) to differentiate the cells into skeletal muscle cells. Then, the culture medium was replaced with MEM solution without FBS, followed by cultivation for three hours, and then the compound under test prepared to a treatment concentration (diluted with MEM solution without FBS) was reacted with the skeletal muscle cells at 37° C. for 1 hour. The cells were washed with Krebs-Henseleit-Ringer buffer solution (hereinafter referred to simply as KHR buffer solution), and 2-deoxy-[^3H]-glucose was added to the cells in the KHR buffer solution, followed by treatment at 37° C. for 10 minutes. The treatment solution was removed, the cells were washed with the KHR buffer solution, then the cells were dissolved in a 1N sodium hydroxide solution in an appropriate amount, and the [^3H] radio activity was measured by means of a liquid scintillation counter (cpm) The percentage of the glucose uptake was represented by the percentage of radio activity when the compound under test was applied, taking the radio activity of the control (the MEM solvent alone was applied) as 100%. Each of the compounds as identified in Table 27 was used for treatment at a concentration of each of 10 μg/ml and 100 μg/ml to examine the stimulating effect on glucose uptake.

Turning to `CSc1nc2ccnn2c(Nc2ccc(Cl)cc2)c1C#N` [compound 161], the melting point (in general, the temperature, or range, at which the solid turns liquid) was in the range of 275 to 276 °C. Further, the activity at 10 µg/mL in the data set with L6 cells was over 115%. In turn, `CSc1nc2ccnn2c(Nc2ccc3c(c2)OCO3)c1C#N` [compound 211] gave a melting point of 158 to 159 °C. In the data set on L6 cells, the activity at 10 µg/mL is over 115% and the activity at 100 µg/mL was over 115%. Take `CSc1nc2ccnn2c(NCCCn2ccnc2)c1C#N` [compound 83]: the melting point is 144 to 146 °C. In the data set on L6 cells, the activity at 100 µg/mL is over 115%. In turn, `CCOC(=O)c1c(SC)nc2ccnn2c1Nc1cccc([N+](=O)[O-])c1` [compound 225] showed a melting point of 166 to 168 °C. The activity at 10 µg/mL with L6 cells was over 115%. The compound `COc1nc2ccnn2c(NCc2ccccc2)c1C#N` [compound 135] came in with a melting point of 148.8 to 149.6 °C. For the same compound, in the data set with L6 cells, the activity at 10 µg/mL was over 115% and the activity at 100 µg/mL is over 115%. Turning to `CSc1nc2ccnn2c(NCCc2ccncc2)c1C#N` [compound 215], the melting point was 184 to 185 °C. Besides, in the data set on L6 cells, the activity at 10 µg/mL was over 115%.

Take `CSc1nc(NCc2ccncc2)n2nccc2n1` [compound 40]: the melting point was 136 °C. Further, in the data set with L6 cells, the activity at 10 µg/mL was over 115% and the activity at 100 µg/mL is over 115%. `CSc1nc2ccnn2c(NCCc2ccccn2)c1C#N` [compound 206] showed a melting point of 138 to 139 °C. Also, in the data set with L6 cells, the activity at 10 µg/mL is over 115%. In the case of `CCOC(=O)c1c(SC)nc2ccnn2c1Nc1ccc([N+](=O)[O-])cc1` [compound 226], the melting point was 170 °C. Further, in the data set on L6 cells, the activity at 10 µg/mL was over 115% and the activity at 100 µg/mL is over 115%. As for `C#CCOc1c(C#N)c(SC)nc2ccnn12` [compound 53], the melting point is 183 °C. In addition, the activity at 100 µg/mL with L6 cells was over 115%. `COC(=O)c1c(SC)nc2ccnn2c1NCc1ccccc1` [compound 120]: the melting point fell in the range of 124.5 to 126.5 °C. The activity at 10 µg/mL with L6 cells is over 115%.

With `COc1nc2ccnn2c(NCC2OCCO2)c1C#N` [compound 136], the melting point was in the range of 148.3 to 149.7 °C. In addition, in the data set on L6 cells, the activity at 10 µg/mL is over 115% and the activity at 100 µg/mL was over 115%. For the compound `CCOCSc1nc2ccnn2c(NCc2ccncc2)c1C#N` [compound 118], the melting point is 160 to 161.6 °C. Moreover, in the data set on L6 cells, the activity at 10 µg/mL was over 115% and the activity at 100 µg/mL is over 115%. `CSc1nc2cc(C)nn2c(NOCc2ccccc2)c1C#N` [compound 190]: the melting point lay within 155 to 156 °C. Further, in the data set with L6 cells, the activity at 100 µg/mL is over 115%.

`COC(=O)c1c(SC)nc2ccnn2c1NOC1OCCO1` [compound 133] returned a melting point of 126.5 to 127.5 °C. Moreover, the activity at 10 µg/mL in the data set on L6 cells is over 115%.

`CSc1nc2ccnn2c(Nc2cccc([N+](=O)[O-])c2)c1C#N` [compound 218] returned a melting point of 180 to 182 °C. In addition, in the data set on L6 cells, the activity at 10 µg/mL is over 115% and the activity at 100 µg/mL was over 115%. Regarding `CSc1nc2ccnn2c(NOCc2ccccc2)c1C(=O)O` [compound 132], the activity at 100 µg/mL in the data set on L6 cells was over 115%.

Regarding `CCOC(=O)c1c(SC)nc2ccnn2c1NCc1ccccc1` [compound 222], the melting point fell in the range of 114 to 115 °C. In addition, in the data set on L6 cells, the activity at 10 µg/mL is over 115%. Compound `CSc1nc2ccnn2c(Nc2cccnc2)c1C#N` [compound 178] yielded a melting point of 214 to 215 °C. In the data set with L6 cells, the activity at 10 µg/mL is over 115% and the activity at 100 µg/mL was over 115%.

In the case of `CSc1nc2nccn2c(NCc2ccncc2)c1C#N` [compound 43], the melting point is 204 °C. Moreover, in the data set on L6 cells, the activity at 10 µg/mL is over 115% and the activity at 100 µg/mL was over 115%. `COC(=O)c1c(SC)nc2ccnn2c1Nc1ccccc1` [compound 122]: in the data set on L6 cells, the activity at 10 µg/mL was over 115% and the activity at 100 µg/mL was over 115%.

With `Cc1nc2ccnn2c(N)c1C#N` [compound 25], the activity at 100 µg/mL in the data set on L6 cells was over 115%. With `CSc1nc2ccnn2c(NCc2ccccc2)c1S(C)(=O)=O` [compound 61], the melting point lay in the range of 163 to 164 °C. `CSc1nc(NCc2ccccc2)n2nccc2n1` [compound 39]: the melting point worked out at 133 °C.

`CSc1ccc(Nc2c(C#N)c(SC)nc3ccnn23)cc1` [compound 196] gave a melting point of 190 to 191 °C. On the same count and under the same terms, as for `CSc1nc2ccnn2c(NCc2ccc(Cl)cc2)c1C#N` [compound 31], the figure is 167 °C. On to `C#CCNc1c(S(C)(=O)=O)c(SC)nc2ccnn12` [compound 59], for which the melting point amounted to 175 °C. In turn, `CSc1nc2ccnn2c(NOc2ccccc2)c1C#N` [compound 179] came in with a melting point of over 250 °C. On to `COc1ccc(CNc2c(C#N)c(SC)nc3ccnn23)cc1` [compound 56], for which the melting point was 137 °C. `C=CCSc1nc2ccnn2c(N)c1C#N` [compound 75] registered a melting point of 258.5 to 259 °C. Same read-out and setting: as for `COCSc1nc2ccnn2c(N)c1C#N` [compound 106], the figure is 214 to 216 °C (dec.); as for `CSc1nc2ccnn2c(Nc2ccc3c(c2)CCC3)c1C#N` [compound 165], 146 to 148 °C. `CSc1nc2ccnn2c(NCCOc2ccccc2)c1C#N` [compound 181] gave a melting point of 122 °C. As to `COc1cccc(Nc2c(C#N)c(SC)nc3cc(C)nn23)c1` [compound 192], the melting point lay in the range of 142 to 143 °C. The compound `CSc1nc2ccnn2c(NCCC(C)C)c1C#N` [compound 19] had a melting point of 87 to 88 °C. Take `CSc1nc2cc(C)nn2c(Cl)c1C#N` [compound 185]: the melting point lay within 182 to 187 °C.

For `N#Cc1c(SCc2ccccc2)nc2ccnn2c1NCc1ccccc1` [compound 70], the melting point fell in the range of 121 to 122.2 °C.

`COC(=O)c1cccc(Nc2c(C#N)c(SC)nc3ccnn23)c1` [compound 194] yielded a melting point of 153 to 155 °C. The same measure, in the same setting: the result for `COc1ccc(Nc2c(C#N)c(SC)nc3ccnn23)cc1` [compound 169] reads 214 to 215 °C; that for `CSc1nc2cccn2c(NC2CCCCC2)c1C#N` [compound 109], 117 to 118 °C. Compound `CSc1nc2cc(C)nn2c(O)c1C#N` [compound 184] gave a melting point of over 250 °C. For the compound `CSc1nc2ccnn2c(NCc2ccco2)c1C#N` [Compound No. 78, 7-furfurylamino-5-methylthiopyrazolo[1,5-a]pyrimidine-6-carbonitrile], the melting point was 110 °C. On the same count and under the same terms, as for `CSc1nc2nc(SC)c(C#N)c(NCc3ccncc3)n2n1` [compound 38], the figure is 230 to 233 °C; as for `CSc1nc2ccnn2c(Nc2ccc(S(N)(=O)=O)cc2)c1C#N` [compound 149], 285 to 288 °C (dec.). `CSc1nc2ccnn2c(Nc2ccc(S(=O)(=O)N(C)C)cc2)c1C#N` [compound 150]: the melting point is 303 to 306 °C (dec.). `CCOC(=O)c1ccc(Nc2c(C#N)c(SC)nc3ccnn23)cc1` [compound 175] yielded a melting point of 191 to 192 °C. In the case of `CSc1nc2ccnn2c(Nc2ccc3ncsc3c2)c1C#N` [compound 166], the melting point lay in the range of 140 to 141 °C.

The compound `CCOC(=O)CNc1c(C#N)c(SC)nc2ccnn12` [compound 13] returned a melting point of 184 to 185 °C. `CSc1nc2ccnn2c(NCC#N)c1C#N` [compound 84] displayed a melting point of 207 °C. Turning to `CSc1nc2ccnn2c(N)c1C#N` [compound 1, 7-amino-5-methylthiopyrazolo[1,5-a]pyrimidine-6-carbonitrile], the melting point is over 240 °C.

`CSc1nc2c(Br)cnn2c(N)c1C#N` [compound 54] came in with a melting point of over 250 °C. `CSc1nc2ccnn2c(NCc2ccccc2)c1[N+](=O)[O-]` [compound 125] gave a melting point of 136.5 to 138.5 °C.

For `N#Cc1c(SC2CCCC2)nc2ccnn2c1N` [compound 103], the melting point fell in the range of 270.5 to 271.3 °C. For the compound `CSc1nc2ccnn2c(Nc2cccc(C#N)c2)c1C(=O)OCc1ccccc1` [compound 148], the melting point lay within 141 to 142 °C.

Compound `C=CCSc1nc2ccnn2c(NCc2ccccc2)c1C#N` [compound 77] yielded a melting point of 90 to 91.5 °C. With `CSc1nc2ccnn2c(Nc2cccc(S(=O)(=O)N(C)C)c2)c1C#N` [compound 151], the melting point lay in the range of 205 to 208 °C. Regarding `CSc1nc2ccnn2c(Nc2ccc(NC(C)=O)cc2)c1C#N` [compound 193], the melting point is over 280 °C. Compound `CSc1nc2ccnn2c(NCCc2ccccc2)c1C#N` [compound 12] registered a melting point of 107 °C. Take `N#Cc1c(Cc2ccccc2)nc2ccnn2c1NCc1ccccc1` [compound 88]: the melting point turned out to be 163 °C.
